Results as given in PMC11801715, “Activating PKC-ε induces HIV expression with improved tolerability” (PLOS Pathogens, 2025).

Tests used:
PKC-ε = biological target: T1, PKC-ε (Homo sapiens, UniProt Q02156); test: PKC isoform translocation in A549-tGFP cells; assay type: cell-based; design: host or cells: A549; conditions: for EC50: A549-tGFP cells, 60 minutes; for ε selectivity, PKC-ε: EC50 of PKC-ε divided by EC50 of PKC-ε
T1 sequence (Q02156 1-737): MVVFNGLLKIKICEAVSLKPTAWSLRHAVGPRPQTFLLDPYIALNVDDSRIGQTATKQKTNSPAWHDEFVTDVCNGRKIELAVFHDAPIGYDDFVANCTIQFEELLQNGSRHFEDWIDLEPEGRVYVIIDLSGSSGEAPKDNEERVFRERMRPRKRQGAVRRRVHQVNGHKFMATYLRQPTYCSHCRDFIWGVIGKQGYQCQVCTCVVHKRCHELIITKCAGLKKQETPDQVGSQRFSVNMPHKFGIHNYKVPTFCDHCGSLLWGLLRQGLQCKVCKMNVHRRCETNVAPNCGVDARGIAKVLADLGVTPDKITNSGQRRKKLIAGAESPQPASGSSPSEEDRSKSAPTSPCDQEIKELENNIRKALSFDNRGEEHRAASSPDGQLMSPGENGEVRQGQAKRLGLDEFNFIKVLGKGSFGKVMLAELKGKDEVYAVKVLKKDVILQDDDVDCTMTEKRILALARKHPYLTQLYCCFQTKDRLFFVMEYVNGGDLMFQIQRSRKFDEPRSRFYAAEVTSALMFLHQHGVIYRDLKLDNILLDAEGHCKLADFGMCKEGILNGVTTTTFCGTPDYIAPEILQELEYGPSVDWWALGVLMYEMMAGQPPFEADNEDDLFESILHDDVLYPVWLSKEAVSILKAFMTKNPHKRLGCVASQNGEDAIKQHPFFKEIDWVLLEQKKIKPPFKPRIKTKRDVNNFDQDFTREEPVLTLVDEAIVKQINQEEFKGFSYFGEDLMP
Description: Using these findings we embarked on new designs for DAG-lactones with additional substituents from the ester moiety in combination with a few olefin substituents. A description of this effort is reported elsewhere.
(§1) Cellular translocation of PKC isoforms upon activation was determined in 8 A549 cell lines, each expressing a single PKC isoform fused to tGFP (PhenoVista Biosciences). Cells were plated in 384-well plates (80 μL/well) at 10^5 cells/mL in RPMI with 10% FBS and rested overnight. PKC agonist(s) were serially diluted at 1:3 steps in DMSO and added to the cells. After 60 minutes in an incubator at 37 °C, 5% CO2, cells were stained with Hoechst-33342 and fixed with 2% paraformaldehyde for 30 minutes at 4 °C. Cells were then stained with wheat germ agglutinin conjugated to AlexaFluor647 (WGA-647) for 10 minutes at 4 °C, washed to remove excess dye and imaged with Cellomics Array Scan (Thermo Fisher) at room temperature (RT). Images were analyzed using Cellomics automated image analysis algorithm. Plasma membrane translocation was quantified using the ratio between the average fluorescence in the areas at the cell edge defined by WGA-647 and the cytoplasm region.

PBMCs = test: Cytokine induction in vitro in PBMC culture supernatants; assay type: cell-based, human; conditions: 24 hours
Description: Culture supernatants were analyzed for induction of several cytokines as shown in S3 Table, using a 10-plex MSD (Meso Scale Discovery) assay following manufacturer’s instructions. MSD Workbench 4.0 software was used for data analysis and 4-parameter logistic curve fit model was utilized to determine values of experimental samples from standard curves. Values for each cytokine (pg/mL) for a given concentration was calculated as the geometric mean of all triplicate values combined from all 5 donors.

[1] = test system: platelets (CD62P+) and CD4+ T cells (CD69+) in whole blood; test: In vitro whole blood platelet and CD4+ T-cell activation assay; assay type: cell-based, human; conditions: for CD62P EC50/CD69 EC50 ratio Geomean: whole blood from healthy donors, platelets to CD4+ T cells
Description: We developed a novel human whole blood assay to determine whether other PKC agonists also activate platelets at the same concentrations that are required to activate CD4^+ T cells. Platelet activation was assessed by CD62P (P-selectin), which traffics to the cell surface upon activation and α-granule release. CD4^+ T-cell activation was assessed by CD69 upregulation (Fig 7A).
Whole blood was drawn into sodium citrate tubes using a 21-gauge needle. To prevent potential interference from tissue thromboplastin released during venipuncture, which could affect the accuracy of coagulation testing, the first 2 mL of blood drawn was discarded. PKC agonist molecules were dispensed in a dilution series into 80 μL of blood per well in a flat-bottom 96-well plate and mixed gently. Care was taken not to introduce any mechanical stress-related activation of platelets. […] The remaining 72 μL of blood in the first plate was incubated for 1 additional hour and stained with anti-human CD3 (UCHT1), CD4 (SK3), and CD69 (FN50) (30 minutes in the dark). Red blood cell lysis and fixing was done using BD lyse/fix solution. Stained cells were acquired on BD LSR Fortessa II after washing. […] EC50 values for platelet and CD4 T-cell activation for each agonist was obtained by nonlinear regression curve fit using GraphPad Prism version 9.3.0.

PKC-α = PKC-α (Homo sapiens, UniProt P17252); test: PKC isoform translocation in A549-tGFP cells; assay type: cell-based; design: host or cells: A549; conditions: A549-tGFP cells, 60 minutes; read-out: EC50 for PKC-α translocation
Description: A description of this effort is reported elsewhere.
as §1

Cc1ccc(C#Cc2ccc(C(=O)OCC3(CO)Cc4c(-c5ccccc5)ccnc4O3)cc2)cc1 (stereo not drawn) [C-233]
more potent for PKC-ε translocation compared with PKC-η and PKC-θ (PKC-ε; A549-PKC-tGFP reporter cells): 5- to 6 fold | more potent for PKC-ε translocation than PKC-δ (PKC-ε; A549-PKC-tGFP reporter cells): ~200 fold | EC50 (PKC-ε): 240 nM | ε selectivity, PKC-ε (PKC-ε): 1 | GM-CSF in PBMC culture supernatant (PBMCs; 156 nM): 14 pg/mL | IFN-γ in PBMC culture supernatant (PBMCs; 156 nM): 215 pg/mL | IL-1b in PBMC culture supernatant (PBMCs; 156 nM): 42 pg/mL | IL-2 in PBMC culture supernatant (PBMCs; 156 nM): 10 pg/mL | IL-4 in PBMC culture supernatant (PBMCs; 156 nM): 0.3 pg/mL | IL-6 in PBMC culture supernatant (PBMCs; 156 nM): 40 pg/mL | IL-8 in PBMC culture supernatant (PBMCs; 156 nM): 36,739 pg/mL | IL-10 in PBMC culture supernatant (PBMCs; 156 nM): 4 pg/mL | IL-12p70 in PBMC culture supernatant (PBMCs; 156 nM): 5 pg/mL | TNF-α in PBMC culture supernatant (PBMCs; 156 nM): 308 pg/mL | GM-CSF in PBMC culture supernatant (PBMCs; 625 nM): 30 pg/mL | IFN-γ in PBMC culture supernatant (PBMCs; 625 nM): 135 pg/mL | IL-1b in PBMC culture supernatant (PBMCs; 625 nM): 60 pg/mL | IL-2 in PBMC culture supernatant (PBMCs; 625 nM): 14 pg/mL | IL-4 in PBMC culture supernatant (PBMCs; 625 nM): 0.6 pg/mL | IL-6 in PBMC culture supernatant (PBMCs; 625 nM): 44 pg/mL | IL-8 in PBMC culture supernatant (PBMCs; 625 nM): 45,465 pg/mL | IL-10 in PBMC culture supernatant (PBMCs; 625 nM): 4 pg/mL | IL-12p70 in PBMC culture supernatant (PBMCs; 625 nM): 9 pg/mL | TNF-α in PBMC culture supernatant (PBMCs; 625 nM): 834 pg/mL | more potent for T-cell activation relative to platelet activation ([1]; whole blood): 5 fold | CD62P EC50/CD69 EC50 ratio Geomean [1]: 5.1 | improvement relative to the other classes of PKC agonists tested ([1]; whole blood, T-cell versus platelet potency): 2.4- to 3 fold

Cc1ccc(C#Cc2ccc3oc(CC(C)(C)C(=O)OCC4(CO)CC(=CCC(CC(C)C)CC(C)C)C(=O)O4)cc3c2)cc1 (stereo not drawn) [C-232A]
EC50 (PKC-ε): 58 nM | ε selectivity, PKC-ε (PKC-ε): 1 | EC50 (PKC-α): > 39500 nM | GM-CSF in PBMC culture supernatant (PBMCs; 156 nM): 40 pg/mL | IFN-γ in PBMC culture supernatant (PBMCs; 156 nM): 202 pg/mL | IL-1b in PBMC culture supernatant (PBMCs; 156 nM): 72 pg/mL | IL-2 in PBMC culture supernatant (PBMCs; 156 nM): 14 pg/mL | IL-4 in PBMC culture supernatant (PBMCs; 156 nM): 0.4 pg/mL | IL-6 in PBMC culture supernatant (PBMCs; 156 nM): 84 pg/mL | IL-8 in PBMC culture supernatant (PBMCs; 156 nM): 43,224 pg/mL | IL-10 in PBMC culture supernatant (PBMCs; 156 nM): 4.9 pg/mL | IL-12p70 in PBMC culture supernatant (PBMCs; 156 nM): 7 pg/mL | TNF-α in PBMC culture supernatant (PBMCs; 156 nM): 883 pg/mL | GM-CSF in PBMC culture supernatant (PBMCs; 625 nM): 71 pg/mL | IFN-γ in PBMC culture supernatant (PBMCs; 625 nM): 172 pg/mL | IL-1b in PBMC culture supernatant (PBMCs; 625 nM): 125 pg/mL | IL-2 in PBMC culture supernatant (PBMCs; 625 nM): 17 pg/mL | IL-4 in PBMC culture supernatant (PBMCs; 625 nM): 0.6 pg/mL | IL-6 in PBMC culture supernatant (PBMCs; 625 nM): 100 pg/mL | IL-8 in PBMC culture supernatant (PBMCs; 625 nM): 45,964 pg/mL | IL-10 in PBMC culture supernatant (PBMCs; 625 nM): 3.6 pg/mL | IL-12p70 in PBMC culture supernatant (PBMCs; 625 nM): 9 pg/mL | TNF-α in PBMC culture supernatant (PBMCs; 625 nM): 1424 pg/mL | CD62P EC50/CD69 EC50 ratio Geomean [1]: 1.7
